Numbered stars: 1 amine (or outer) side, 2 acyl side, 3 side chain; on linkers, the order of the positions; unused ones are H or OH. Square brackets hold non-standard residues; d marks the D form. Peptide text beside a SMILES is read from it. * marks the point of attachment. Phe(3,4-(OMe)2) = COc1ccc(C[C@H](N)C(=O)O)cc1OC; Phe(3-CONH2) = NC(=O)c1cccc(C[C@H](N)C(=O)O)c1; Pro(trans-4-F) = O=C(O)[C@@H]1C[C@@H](F)CN1; Abu(4,4,4-F3) = N[C@@H](CC(F)(F)F)C(=O)O; Phe(4-CN) = N#Cc1ccc(C[C@H](N)C(=O)O)cc1; Phe(3-F) = N[C@@H](Cc1cccc(F)c1)C(=O)O; Phe(3-Me) = Cc1cccc(C[C@H](N)C(=O)O)c1; Dab(3S-OH) = NC[C@H](O)[C@H](N)C(=O)O; Phe(2-F) = N[C@@H](Cc1ccccc1F)C(=O)O; ΔZArg = N=C(N)NCC/C=C(\N)C(=O)O; X2 = CC=C(N[*:1])C(=O)[*:2]; dOrn = NCCC[C@@H](N)C(=O)O; Pip = O=C(O)[C@@H]1CCCCN1; NH(CH2)5NH2 = NCCCCCN*; NH(CH2)4NH2 = NCCCCN*
Assays:
Assay in all cases: MIC, broth microdilution (CLSI), reference strain
Details in all cases: CAMHB
[1] = system: Escherichia coli ATCC 25922
[2] = system: Pseudomonas aeruginosa ATCC 27853
[3] = system: Acinetobacter baumannii ATCC 19606
[4] = system: Staphylococcus aureus ATCC 13709

Structure (SMILES)	Ec: MIC Escherichia coli ATCC 25922 [1]	Pa: MIC Pseudomonas aeruginosa ATCC 27853 [2]	Ab: MIC Acinetobacter baumannii ATCC 19606 [3]	Sa: MIC Staphylococcus aureus ATCC 13709 [4]
N=C(N)NCC/C=C(\NC(=O)[C@H](CCCCN)NC(=O)[C@H](Cc1ccccc1F)NC(=O)[C@@H]1CCCN1C(=O)[C@@H](CCCN)NC(=O)CNC(=O)[C@@H](NC(=O)[C@@H](NC(=O)[C@@H](N)CCCCN)[C@@H](O)CN)[C@@H](O)CN)C(=O)O [22.33] (H-K[Dab(3S-OH)][Dab(3S-OH)]G[dOrn]P[Phe(2-F)]K[ΔZArg]-OH)	++ (≤8 μg/mL)	− (>32 μg/mL)	− (>32 μg/mL)	++ (≤8 μg/mL)
COc1ccc(C[C@H](NC(=O)[C@@H]2CCCN2C(=O)[C@@H](CCCN)NC(=O)CNC(=O)[C@@H](NC(=O)[C@@H](NC(=O)[C@@H](N)CCCCN)[C@@H](O)CN)[C@@H](O)CN)C(=O)N[C@@H](CCCCN)C(=O)N/C(=C\CCNC(=N)N)C(=O)O)cc1OC [22.34] (H-K[Dab(3S-OH)][Dab(3S-OH)]G[dOrn]P[Phe(3,4-(OMe)2)]K[ΔZArg]-OH)	++ (≤8 μg/mL)	− (>32 μg/mL)	− (>32 μg/mL)	++ (≤8 μg/mL)
N=C(N)NCC/C=C(\NC(=O)[C@H](CCCCN)NC(=O)[C@H](Cc1cccc(C(N)=O)c1)NC(=O)[C@@H]1CCCN1C(=O)[C@@H](CCCN)NC(=O)CNC(=O)[C@@H](NC(=O)[C@@H](NC(=O)[C@@H](N)CCCCN)[C@@H](O)CN)[C@@H](O)CN)C(=O)O [22.35] (H-K[Dab(3S-OH)][Dab(3S-OH)]G[dOrn]P[Phe(3-CONH2)]K[ΔZArg]-OH)	− (>32 μg/mL)	− (>32 μg/mL)	− (>32 μg/mL)	− (>32 μg/mL)
N=C(N)NCC/C=C(\NC(=O)[C@H](CCCCN)NC(=O)[C@H](Cc1cccc(F)c1)NC(=O)[C@@H]1CCCN1C(=O)[C@@H](CCCN)NC(=O)CNC(=O)[C@@H](NC(=O)[C@@H](NC(=O)[C@@H](N)CCCCN)[C@@H](O)CN)[C@@H](O)CN)C(=O)O [22.36] (H-K[Dab(3S-OH)][Dab(3S-OH)]G[dOrn]P[Phe(3-F)]K[ΔZArg]-OH)	++ (≤8 μg/mL)	− (>32 μg/mL)	− (>32 μg/mL)	++ (≤8 μg/mL)
Cc1cccc(C[C@H](NC(=O)[C@@H]2CCCN2C(=O)[C@@H](CCCN)NC(=O)CNC(=O)[C@@H](NC(=O)[C@@H](NC(=O)[C@@H](N)CCCCN)[C@@H](O)CN)[C@@H](O)CN)C(=O)N[C@@H](CCCCN)C(=O)N/C(=C\CCNC(=N)N)C(=O)O)c1 [22.37] (H-K[Dab(3S-OH)][Dab(3S-OH)]G[dOrn]P[Phe(3-Me)]K[ΔZArg]-OH)	+ (≤32 μg/mL)	− (>32 μg/mL)	− (>32 μg/mL)	++ (≤8 μg/mL)
N#Cc1ccc(C[C@H](NC(=O)[C@@H]2CCCN2C(=O)[C@@H](CCCN)NC(=O)CNC(=O)[C@@H](NC(=O)[C@@H](NC(=O)[C@@H](N)CCCCN)[C@@H](O)CN)[C@@H](O)CN)C(=O)N[C@@H](CCCCN)C(=O)N/C(=C\CCNC(=N)N)C(=O)O)cc1 [22.38] (H-K[Dab(3S-OH)][Dab(3S-OH)]G[dOrn]P[Phe(4-CN)]K[ΔZArg]-OH)	++ (≤8 μg/mL)	− (>32 μg/mL)	− (>32 μg/mL)	++ (≤8 μg/mL)
COc1ccc(C[C@H](NC(=O)[C@@H]2CCCN2C(=O)[C@@H](CCCN)NC(=O)CNC(=O)[C@@H](NC(=O)[C@@H](NC(=O)[C@@H](N)CCCCN)[C@@H](O)CN)[C@@H](O)CN)C(=O)N[C@@H](CCCCN)C(=O)N/C(=C\CCNC(=N)N)C(=O)O)cc1 [22.39] (H-K[Dab(3S-OH)][Dab(3S-OH)]G[dOrn]PY(Me)K[ΔZArg]-OH)	+ (≤32 μg/mL)	− (>32 μg/mL)	− (>32 μg/mL)	++ (≤8 μg/mL)
N=C(N)NCC/C=C(\NC(=O)[C@H](CCCCN)NC(=O)[C@H](CC(F)(F)F)NC(=O)[C@@H]1CCCN1C(=O)[C@@H](CCCN)NC(=O)CNC(=O)[C@@H](NC(=O)[C@@H](NC(=O)[C@@H](N)CCCCN)[C@@H](O)CN)[C@@H](O)CN)C(=O)O [22.40] (H-K[Dab(3S-OH)][Dab(3S-OH)]G[dOrn]P[Abu(4,4,4-F3)]K[ΔZArg]-OH)	+ (≤32 μg/mL)	− (>32 μg/mL)	− (>32 μg/mL)	++ (≤8 μg/mL)
N=C(N)NCC/C=C(\NC(=O)[C@H](CCCCN)NC(=O)[C@H](Cc1c[nH]c2ccccc12)NC(=O)[C@@H]1CCCN1C(=O)[C@@H](CCCN)NC(=O)CNC(=O)[C@@H](NC(=O)[C@@H](NC(=O)[C@@H](N)CCCCN)[C@@H](O)CN)[C@@H](O)CN)C(=O)O [22.41] (H-K[Dab(3S-OH)][Dab(3S-OH)]G[dOrn]PWK[ΔZArg]-OH)	++ (≤8 μg/mL)	− (>32 μg/mL)	− (>32 μg/mL)	++ (≤8 μg/mL)
N=C(N)NCC/C=C(\NC(=O)[C@H](CCCCN)NC(=O)[C@H](Cc1cnc[nH]1)NC(=O)[C@@H]1CCCN1C(=O)[C@@H](CCCN)NC(=O)CNC(=O)CNC(=O)[C@@H](NC(=O)[C@@H](N)CCCCN)[C@@H](O)CN)C(=O)N[C@@H](CCCCN)C(=O)NCCCCN [23.1] (H-K[Dab(3S-OH)]GG[dOrn]PHK[ΔZArg]K-{NH(CH2)4NH2})	++ (≤8 μg/mL)	− (>32 μg/mL)	− (>32 μg/mL)	++ (≤8 μg/mL)
C[C@H](NC(=O)[C@@H](NC(=O)[C@@H](N)CCCCN)[C@@H](O)CN)C(=O)NCC(=O)N[C@H](CCCN)C(=O)N1CCC[C@H]1C(=O)N[C@@H](Cc1cnc[nH]1)C(=O)N[C@@H](CCCCN)C(=O)N/C(=C\CCNC(=N)N)C(=O)N[C@@H](CCCCN)C(N)=O [24.2] (H-K[Dab(3S-OH)]AG[dOrn]PHK[ΔZArg]K-NH2)	++ (≤8 μg/mL)	+ (≤32 μg/mL)	− (>32 μg/mL)	++ (≤8 μg/mL)
C[C@H](NC(=O)[C@@H](NC(=O)[C@@H](N)CCCCN)[C@@H](O)CN)C(=O)NCC(=O)N[C@H](CCCN)C(=O)N1CCCC[C@H]1C(=O)N[C@@H](Cc1cnc[nH]1)C(=O)N[C@@H](CCCCN)C(=O)N/C(=C\CCNC(=N)N)C(=O)N[C@@H](CCCCN)C(=O)NCCCCN [24.3] (H-K[Dab(3S-OH)]AG[dOrn][Pip]HK[ΔZArg]K-{NH(CH2)4NH2})	++ (≤8 μg/mL)	+ (≤32 μg/mL)	− (>32 μg/mL)	++ (≤8 μg/mL)
C[C@H](NC(=O)[C@@H](NC(=O)[C@@H](N)CCCCN)[C@@H](O)CN)C(=O)NCC(=O)N[C@H](CCCN)C(=O)N1C[C@H](F)C[C@H]1C(=O)N[C@@H](Cc1cnc[nH]1)C(=O)N[C@@H](CCCCN)C(=O)N/C(=C\CCNC(=N)N)C(=O)N[C@@H](CCCCN)C(=O)NCCCCN [24.4] (H-K[Dab(3S-OH)]AG[dOrn][Pro(trans-4-F)]HK[ΔZArg]K-{NH(CH2)4NH2})	++ (≤8 μg/mL)	+ (≤32 μg/mL)	+ (≤32 μg/mL)	++ (≤8 μg/mL)
C[C@H](NC(=O)[C@@H](NC(=O)[C@@H](N)CCCCN)[C@@H](O)CN)C(=O)NCC(=O)N[C@H](CCCN)C(=O)N1CCC[C@H]1C(=O)N[C@@H](Cc1cnc[nH]1)C(=O)N[C@@H](CCCCN)C(=O)N/C(=C\CCNC(=N)N)C(=O)N[C@@H](CCCCN)C(=O)NCCCCCN [24.6] (H-K[Dab(3S-OH)]AG[dOrn]PHK[ΔZArg]K-{NH(CH2)5NH2})	++ (≤8 μg/mL)	++ (≤8 μg/mL)	+ (≤32 μg/mL)	++ (≤8 μg/mL)
C[C@H](NC(=O)/C(=C/CCNC(=N)N)NC(=O)[C@H](CCCCN)NC(=O)[C@H](Cc1cnc[nH]1)NC(=O)[C@@H]1CCCN1C(=O)[C@@H](CCCN)NC(=O)CNC(=O)[C@H](C)NC(=O)[C@@H](NC(=O)[C@@H](N)CCCCN)[C@@H](O)CN)C(N)=O [24.7] (H-K[Dab(3S-OH)]AG[dOrn]PHK[ΔZArg]A-NH2)	++ (≤8 μg/mL)	− (>32 μg/mL)	− (>32 μg/mL)	++ (≤8 μg/mL)
CC=C(NC(=O)[C@H](CCCCN)NC(=O)[C@H](Cc1cnc[nH]1)NC(=O)[C@@H]1CCCN1C(=O)[C@@H](CCCN)NC(=O)CNC(=O)[C@H](C)NC(=O)[C@@H](NC(=O)[C@@H](N)CCCCN)[C@@H](O)CN)C(=O)N[C@@H](CCCCN)C(=O)NCCCCN [24.8] (H-K[Dab(3S-OH)]AG[dOrn]PHK[X2]K-{NH(CH2)4NH2})	+ (≤32 μg/mL)	− (>32 μg/mL)	− (>32 μg/mL)	++ (≤8 μg/mL)
